Measurements as given in publication PMC7889231 (Journal of Enzyme Inhibition and Medicinal Chemistry, 2021).

How the values were obtained:
HepG-2 cells [1] = assay: Cell cycle analysis by flow cytometry; format: cell-based, human; details: HepG-2, 1.89 µM, 24 h
Procedure: The impact of the most promising compound 25 on cell cycle distribution was assessed. Such analysis gave a better insight into the effect of the synthesised compounds on cancer cell growth inhibition. HepG-2 cells were utilised in this test. The reported method described by Wand et al.[50] was followed.
The effect of the most promising compound 25 on cell cycle was evaluated using flowcytometer[50]^,[53]^,[54] as illustrated in Supplementary data.

[2] = test system: HepG-2, HCT-116, and MCF-7; assay: MTT anti-proliferative assay, ranges stated over several cell lines; format: cell-based; details: Homo sapiens; range over HepG-2, HCT-116 and MCF-7 and over the listed compounds; read-out: IC50 values ranging (all tested cell lines)
HepG-2 = assay: MTT anti-proliferative assay, HepG-2; format: cell-based, human
MCF-7 = assay: MTT anti-proliferative assay, MCF-7; format: cell-based, human
HCT-116 = assay: MTT anti-proliferative assay, HCT-116; format: cell-based, human
HepG-2 cells [3] = assay: Annexin V-FITC/PI apoptosis assay; format: cell-based, human; details: HepG-2, 1.89 µM, 24 h
Procedure: Annexin V and PI double staining assay[51] was carried out to explore the proposed apoptotic effect of the synthesised compounds. Compound 25 as a representative example was tested against HepG-2 cells. In this test, HepG-2 cells were incubated with compound 25 at a concentration of 1.89 µM for 24 h.
The effect of compound 25 on apoptosis induction was analysed using Annexin V-FITC/PI apoptosis detection kit using flowcytometer[51]^,[55]^,[56] as illustrated in Supplementary data.

tubulin = assay: In vitro tubulin polymerisation inhibition (turbidimetric, fluorescent plate reader); format: biochemical; details: mean of three experiments
Procedure: The inhibition assay on microtubule polymerisation was evaluated turbidimetrically using a fluorescent plate reader.
The effect of the synthesised compounds on tubulin polymerisation was assessed turbidimetrically using a fluorescent plate reader method. The complete procedure was depected in Supplementary data.

## COc1ccc2nc(Cl)c(C3CC(c4cc(OC)c(OC)c(OC)c4)=NN3c3ccc([N+](=O)[O-])cc3[N+](=O)[O-])cc2c1 (stereo not shown) [Compound 25, 2-Chloro-3-[1–(2,4-dinitrophenyl)-3–(3,4,5-trimethoxyphenyl)-4,5-dihydro-1H-pyrazol-5-yl]-6-methoxyquinoline]
HepG-2 cells [1]
  effect on cell cycle: arrest the cell cycle at G2/M phase
HepG-2 cells [1]; control 2.57
  Cell cycle distribution %Pre-G1: 21.46%
HepG-2 cells [1]; control 13.8
  Cell cycle distribution %G2-M: 30.17%
HepG-2 cells [1]; control 24.83
  Cell cycle distribution %S: 28.95%
HepG-2 cells [1]; control 61.37
  Cell cycle distribution %G0-G1: 40.88%
[2]
  IC50: 1780 to 9190 nM
HepG-2; Homo sapiens, HepG2, MTT, mean ± SD of three experiments, read-out: IC50 HepG-2
  IC50: 1890 ± 200 nM
HepG-2; ratio of IC50 to colchicine
  times of colchicine cytotoxic activity, HepG-2: 3.91 times
other
  melting point: 135 to 136 °C
MCF-7; Homo sapiens, MCF7, MTT, mean ± SD of three experiments, read-out: IC50 MCF-7
  IC50: 4210 ± 100 nM
MCF-7; ratio of IC50 to colchicine
  times of colchicine cytotoxic activity, MCF-7: 2.47 times
HCT-116; Homo sapiens, HCT-116, MTT, mean ± SD of three experiments, read-out: IC50 HCT-116
  IC50: 1430 ± 100 nM
HCT-116; ratio of IC50 to colchicine
  times of colchicine cytotoxic activity, HCT-116: 6.51 times
HepG-2 cells [3]
  apoptotic effect relative to control: thirteen times more than the control
HepG-2 cells [3]; control 0.67
  Apoptosis Early: 7.66%
HepG-2 cells [3]; control 0.72
  Apoptosis Late: 11.39%
HepG-2 cells [3]; control 1.18
  Necrosis: 2.41%
HepG-2 cells [3]; control 1.39%
  apoptotic effect (early and late apoptosis): 19.05%
tubulin
  IC50: 41.3 nM
